One assay deals with breast line MDA468. Kind of assay: In vitro cell culture growth assay (MTS), MDA468. It is filed as cell-based. To be noted: Homo sapiens, 72 h, MDA468 cells, three days after drug treatment. An outline of the steps: (§1)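 Viable cell density is assessed three days after inhibitor addition via MTS conversion, normalised to vehicle-treated cells.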
The test system of the next assay is prostate line LNCap. Kind of assay: In vitro cell culture growth assay (MTS), LNCap. The format is cell-based. The following applies: Homo sapiens, LNCaP, 72 h, LNCap cells, three days after drug treatment. The procedure, abridged: as §1
For the next assay, the target named is T1, Human mTOR (FLAG-TOR) (Homo sapiens, UniProt P42345).
T1 construct: FLAG
Briefly: Human mTOR kinase assay with purified enzyme, DELFIA format. It is filed as biochemical. An outline of the steps: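 Purified FLAG-mTOR in HEPES pH 7.4 buffer with 10 mM MnCl2 was preincubated with inhibitor and reacted 2 h at room temperature with His6-S6K substrate, then stopped with EDTA/EGTA. Phospho-T389 S6K detected by DELFIA with Eu-labelled antibody (40 ng/mL) after plate capture; inhibition computed from signal.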

The target in assay [1] is T2, PI3K (Homo sapiens, UniProt P48736).
T2 construct: PI3 Kinase γ IC50; other: PI3 Kinase γ; other: PI3 Kinase γ isoform, fluorescence polarization
Briefly: Fluorescence polarization assay for PI3K. The following applies: read-out: PI3 Kinase γ IC50. The format is biochemical. The procedure, abridged:
(§2)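 PI3K was preincubated with compound (final DMSO 1%), and the reaction was started with PIP2/ATP substrate and run 30–60 min. It was stopped with a detector mix giving 10 nM red probe and 70 nM GST-GRP.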

In assay [2] the target is T3, PI3K (Homo sapiens, UniProt P42336).
T3 construct: PI3 Kinase α IC50; other: PI3 Kinase α; other: PI3 Kinase α isoform, fluorescence polarization
Briefly: Fluorescence polarization assay for PI3K. The format is biochemical. To be noted: read-out: PI3 Kinase α IC50. An outline of the steps:
as §2

[3] abbreviates: purified human mTOR enzyme, DELFIA format.
The mark [4] stands for this setting: PI3 Kinase γ isoform, fluorescence polarization.
[5] abbreviates: PI3 Kinase α isoform, fluorescence polarization.

The structures appear in SMILES notation. pIC50: −log10 of the molar value. Where two headings read alike, the source gives them in different places. Bounds are passed on as bounds.

T2 sequence (P48736 whole entry, canonical isoform): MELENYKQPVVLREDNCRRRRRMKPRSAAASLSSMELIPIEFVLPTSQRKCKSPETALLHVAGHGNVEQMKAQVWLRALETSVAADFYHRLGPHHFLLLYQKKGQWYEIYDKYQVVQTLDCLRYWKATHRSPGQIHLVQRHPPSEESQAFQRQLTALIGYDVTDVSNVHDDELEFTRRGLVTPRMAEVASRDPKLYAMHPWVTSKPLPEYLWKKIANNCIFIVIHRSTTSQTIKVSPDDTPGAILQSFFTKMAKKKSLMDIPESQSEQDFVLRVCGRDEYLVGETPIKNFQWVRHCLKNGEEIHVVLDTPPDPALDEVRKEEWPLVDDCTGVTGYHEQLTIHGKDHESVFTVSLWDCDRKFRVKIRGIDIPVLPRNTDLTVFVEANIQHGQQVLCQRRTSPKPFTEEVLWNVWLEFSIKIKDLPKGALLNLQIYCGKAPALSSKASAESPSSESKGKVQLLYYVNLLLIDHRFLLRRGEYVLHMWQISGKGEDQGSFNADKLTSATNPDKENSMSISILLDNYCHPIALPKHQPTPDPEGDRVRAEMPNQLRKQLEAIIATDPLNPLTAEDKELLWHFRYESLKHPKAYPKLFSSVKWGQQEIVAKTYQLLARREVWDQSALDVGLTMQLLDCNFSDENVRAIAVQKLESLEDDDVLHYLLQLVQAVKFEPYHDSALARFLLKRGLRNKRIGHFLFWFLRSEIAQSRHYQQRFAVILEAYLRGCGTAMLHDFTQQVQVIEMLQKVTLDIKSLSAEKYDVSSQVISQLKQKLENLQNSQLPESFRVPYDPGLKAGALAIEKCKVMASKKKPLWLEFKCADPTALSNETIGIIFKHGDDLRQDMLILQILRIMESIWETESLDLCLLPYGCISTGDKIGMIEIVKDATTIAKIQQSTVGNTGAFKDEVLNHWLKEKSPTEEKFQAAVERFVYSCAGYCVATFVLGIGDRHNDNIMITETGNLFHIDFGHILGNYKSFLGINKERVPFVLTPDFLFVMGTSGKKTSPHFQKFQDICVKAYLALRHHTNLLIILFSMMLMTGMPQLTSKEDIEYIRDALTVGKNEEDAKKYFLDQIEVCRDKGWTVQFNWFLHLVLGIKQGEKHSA
T3 sequence (P42336 whole entry, canonical isoform): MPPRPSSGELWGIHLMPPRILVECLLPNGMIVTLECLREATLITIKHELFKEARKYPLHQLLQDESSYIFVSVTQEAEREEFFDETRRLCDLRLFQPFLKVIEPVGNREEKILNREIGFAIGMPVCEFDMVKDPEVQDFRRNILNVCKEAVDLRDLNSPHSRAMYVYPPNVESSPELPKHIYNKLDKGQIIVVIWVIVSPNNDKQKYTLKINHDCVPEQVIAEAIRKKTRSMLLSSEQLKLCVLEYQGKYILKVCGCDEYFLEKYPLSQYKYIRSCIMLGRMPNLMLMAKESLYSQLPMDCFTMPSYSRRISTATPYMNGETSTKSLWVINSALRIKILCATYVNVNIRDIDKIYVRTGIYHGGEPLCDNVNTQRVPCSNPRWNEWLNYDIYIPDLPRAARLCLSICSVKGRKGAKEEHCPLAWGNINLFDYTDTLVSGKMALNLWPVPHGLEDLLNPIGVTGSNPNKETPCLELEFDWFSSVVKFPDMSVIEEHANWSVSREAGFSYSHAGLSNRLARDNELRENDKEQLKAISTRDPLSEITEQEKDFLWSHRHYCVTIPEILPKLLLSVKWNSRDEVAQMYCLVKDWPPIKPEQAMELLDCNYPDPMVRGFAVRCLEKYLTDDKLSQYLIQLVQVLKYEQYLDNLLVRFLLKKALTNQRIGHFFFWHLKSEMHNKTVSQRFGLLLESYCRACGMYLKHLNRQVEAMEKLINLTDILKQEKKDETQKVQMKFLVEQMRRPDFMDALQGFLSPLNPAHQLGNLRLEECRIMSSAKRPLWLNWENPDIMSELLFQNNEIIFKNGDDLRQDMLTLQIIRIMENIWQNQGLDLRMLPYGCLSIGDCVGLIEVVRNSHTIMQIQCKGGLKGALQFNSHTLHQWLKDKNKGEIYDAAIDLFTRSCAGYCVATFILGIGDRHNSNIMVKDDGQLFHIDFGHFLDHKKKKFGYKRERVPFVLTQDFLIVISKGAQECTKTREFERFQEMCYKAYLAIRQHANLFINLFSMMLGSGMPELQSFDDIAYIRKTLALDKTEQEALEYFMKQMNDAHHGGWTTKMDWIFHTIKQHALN

A word on the pIC50: it is the negative decadic logarithm of the IC50, by convention in mol/L. Take `N#CCCn1ncc2c(N3CC4CCC(C3)O4)nc(-c3ccc(NC(=O)Nc4cccnc4)cc3)nc21` [Example 216, 1-{4-[1-(2-cyanoethyl)-4-(8-oxa-3-azabicyclo[3.2.1]oct-3-yl)-1H-pyrazolo[3,4-d]pyrimidin-6-yl]phenyl}-3-pyridin-3-ylurea]: the pIC50 in the assay with breast line MDA468 is 7.26; with prostate line LNCap it was 8.40; at Human mTOR (FLAG-TOR) it was 9.59; at PI3K [1] (PI3 Kinase γ) it was 5.48; at PI3K [2] (PI3 Kinase α), 6.91.
On to `Oc1ccc(Nc2nc(N3CC4CCC(C3)O4)c3sccc3n2)cc1` [Example 422, 4-{[4-(8-oxa-3-azabicyclo[3.2.1]oct-3-yl)thieno[3,2-d]pyrimidin-2-yl]amino}phenol], for which the pIC50 in the assay on breast line MDA468 is 4.51; in the assay with prostate line LNCap, 5.14; against Human mTOR (FLAG-TOR) (setting [3]), 6.57; at PI3K [1] (setting [4]), less than 5.00; at PI3K [2] (setting [5]) it was 5.35.
The corresponding values for `COC(=O)N1CCC(n2ncc3c(N4C5CCC4COC5)nc(-c4ccc(NC(=O)Nc5ccc(N6CCN(C)CC6)nc5)cc4)nc32)CC1` [Example 365, methyl 4-{6-[4-({[6-(4-methylpiperazin-1-yl)pyridin-3-yl]carbamoyl}amino)phenyl]-4-(3-oxa-8-azabicyclo[3.2.1]oct-8-yl)-1H-pyrazolo[3,4-d]pyrimidin-1-yl}piperidine-1-carboxylate] are 7.92, 8.40, 9.10, 5.34 and 5.59.
As for `O=C(NCCF)Nc1ccc(-c2nc(N3CC4CCC(C3)O4)c3cnn(C4CCC5(CC4)OCCO5)c3n2)cc1` [Example 124, 1-{4-[1-(1,4-dioxaspiro[4.5]dec-8-yl)-4-(8-oxa-3-azabicyclo[3.2.1]oct-3-yl)-1H-pyrazolo[3,4-d]pyrimidin-6-yl]phenyl}-3-(2-fluoroethyl)urea], the pIC50 with breast line MDA468 is 7.70; in the assay with prostate line LNCap it was 9.00; against Human mTOR (FLAG-TOR), 9.65; at PI3K [1] (PI3 Kinase γ), less than 5.00; at PI3K [2] (PI3 Kinase α) it was 5.29.
The corresponding values for `CCn1ncc2c(N3CC4CCC(C3)O4)nc(-c3ccc(NC(=O)Nc4ccc(Cl)cc4)cc3)nc21` [Example 188, 1-(4-chlorophenyl)-3-{4-[1-ethyl-4-(8-oxa-3-azabicyclo[3.2.1]oct-3-yl)-1H-pyrazolo[3,4-d]pyrimidin-6-yl]phenyl}urea] are 6.72, 8.00, 8.96, 5.53 and 6.33.
For `CCNC(=O)Nc1ccc(-c2nc(N3CC4CCC(C3)O4)c3cnn(C4CCN(C(=O)OCC)CC4)c3n2)cc1` [Example 31, ethyl 4-[6-{4-[(ethylcarbamoyl)amino]phenyl}-4-(8-oxa-3-azabicyclo[3.2.1]oct-3-yl)-1H-pyrazolo[3,4-d]pyrimidin-1-yl]piperidine-1-carboxylate], the pIC50 with breast line MDA468 is 7.15; in the assay with prostate line LNCap it was 9.10; against Human mTOR (FLAG-TOR) it was 9.44; on PI3K [1] (PI3 Kinase γ) it was 4.96; at PI3K [2] (PI3 Kinase α) it was 5.72.
Turning to `c1cc2cc(-c3nc(N4CC5CCC(C4)O5)c4sccc4n3)ccc2[nH]1` [Example 419, 2-(1H-indol-5-yl)-4-(8-oxa-3-azabicyclo[3.2.1]oct-3-yl)thieno[3,2-d]pyrimidine], the pIC50 in the assay with breast line MDA468 is 5.10; in the assay on prostate line LNCap, 5.87; on Human mTOR (FLAG-TOR) (setting [3]) it was 7.66; at PI3K [1] (setting [4]), less than 5.00; at PI3K [2] (setting [5]), 5.06.
Consider `Cn1ncc2c(N3CC4COC(C3)O4)nc(-c3ccc(NC(=O)Nc4cccnc4)cc3)nc21` (stereo not drawn) [Example 391, 1-{4-[4-(6,8-dioxa-3-azabicyclo[3.2.1]oct-3-yl)-1-methyl-1H-pyrazolo[3,4-d]pyrimidin-6-yl]phenyl}-3-pyridin-3-ylurea], for which the pIC50 in the assay on breast line MDA468 is 6.24; in the assay on prostate line LNCap it was 6.73; against Human mTOR (FLAG-TOR) (setting [3]) it was 8.38; on PI3K [1] (setting [4]) it was 6.04; at PI3K [2] (setting [5]), 7.00.
Consider `CC(C)(C)n1ncc2c(N3CC4CCC(C3)O4)nc(-c3ccc(NC(=O)NC4CC4)cc3)nc21` [Example 96], for which the pIC50 in the assay with breast line MDA468 was less than 4.22; in the assay on prostate line LNCap, 5.77; against Human mTOR (FLAG-TOR), 9.40; at PI3K [1] (PI3 Kinase γ), less than 5.00; on PI3K [2] (PI3 Kinase α) it was 5.94.
On the same counts, the results for `CCn1ncc2c(N3CC4CCC(C3)O4)nc(-c3ccc(NC(=O)Nc4ccc(C(N)=O)cc4)cc3)nc21` [Example 285, 4-[({4-[1-ethyl-4-(8-oxa-3-azabicyclo[3.2.1]oct-3-yl)-1H-pyrazolo[3,4-d]pyrimidin-6-yl]phenyl}carbamoyl)amino]benzamide] are 9.00, more than 9.00, 9.98, 6.28 and 7.64.
With `CN1CCN(c2ccc(NC(=O)Nc3ccc(-c4nc(N5CC6CCC(C5)O6)c5cnn(C6CCC(=O)CC6)c5n4)cc3)cc2)CC1` [Example 400, 1-[4-(4-methylpiperazin-1-yl)phenyl]-3-{4-[4-(8-oxa-3-azabicyclo[3.2.1]oct-3-yl)-1-(4-oxocyclohexyl)-1H-pyrazolo[3,4-d]pyrimidin-6-yl]phenyl}urea], the pIC50 with breast line MDA468 is more than 9.00; in the assay with prostate line LNCap, more than 9.00; against Human mTOR (FLAG-TOR) (setting [3]), 9.47; at PI3K [1] (setting [4]), 5.70; at PI3K [2] (setting [5]), 6.78.
In the case of `CCn1ncc2c(N3CC4CCC(C3)O4)nc(-c3ccc(NC(=O)Nc4ccc(OCCN(C)C)cc4)cc3)nc21` [Example 186, 1-{4-[2-(dimethylamino)ethoxy]phenyl}-3-{4-[1-ethyl-4-(8-oxa-3-azabicyclo[3.2.1]oct-3-yl)-1H-pyrazolo[3,4-d]pyrimidin-6-yl]phenyl}urea], the pIC50 in the assay on breast line MDA468 is 8.10; in the assay on prostate line LNCap, more than 9.00; against Human mTOR (FLAG-TOR) it was 9.08; on PI3K [1] (PI3 Kinase γ), 5.75; at PI3K [2] (PI3 Kinase α) it was 6.87.
The corresponding values for `O=C(Nc1ccccc1)Nc1ccc(-c2nc(N3CC4CCC(C3)O4)c3cnn(CCO)c3n2)cc1` [Example 198, 1-{4-[1-(2-hydroxyethyl)-4-(8-oxa-3-azabicyclo[3.2.1]oct-3-yl)-1H-pyrazolo[3,4-d]pyrimidin-6-yl]phenyl}-3-phenylurea] are 6.72, 7.55, 9.16, 5.72 and 7.17.
With `CCn1ncc2c(N3CC4CCC(C3)O4)nc(-c3ccc(NC(=O)NC4CCN(C)CC4)cc3)nc21` [Example 228, 1-{4-[1-ethyl-4-(8-oxa-3-azabicyclo[3.2.1]oct-3-yl)-1H-pyrazolo[3,4-d]pyrimidin-6-yl]phenyl}-3-(1-methylpiperidin-4-yl)urea], the pIC50 was 6.05 with breast line MDA468; 6.31 in the assay with prostate line LNCap; 7.50 against Human mTOR (FLAG-TOR); less than 5.00 at PI3K [1] (PI3 Kinase γ); 5.35 on PI3K [2] (PI3 Kinase α).
The corresponding values for `CCn1ncc2c(N3CC4CCC(C3)O4)nc(-c3ccc(NC(=O)Nc4ccc(N5CCOCC5)nc4)cc3)nc21` [Example 184, 1-{4-[1-ethyl-4-(8-oxa-3-azabicyclo[3.2.1]oct-3-yl)-1H-pyrazolo[3,4-d]pyrimidin-6-yl]phenyl}-3-(6-morpholin-4-ylpyridin-3-yl)urea] are 8.10, 9.00, 9.53, 5.11 and 5.67.
Take `O=C(Nc1ccc(-c2nc(N3CC4CCC(C3)O4)c3cnn(C4CCC(O)CC4)c3n2)cc1)OCCO` (stereo not drawn) [Example 212, 2-hydroxyethyl {4-[1-(4-hydroxycyclohexyl)-4-(8-oxa-3-azabicyclo[3.2.1]oct-3-yl)-1H-pyrazolo[3,4-d]pyrimidin-6-yl]phenyl}carbamate]: the pIC50 in the assay on breast line MDA468 was 6.72; in the assay with prostate line LNCap it was 7.38; at Human mTOR (FLAG-TOR), 9.25; on PI3K [1] (PI3 Kinase γ), less than 5.00; at PI3K [2] (PI3 Kinase α), 5.40.
On the same counts, the results for `CN(C)c1ccc(NC(=O)Nc2ccc(-c3nc(N4CC5CCC(C4)O5)c4cnn(CCF)c4n3)cc2)cc1` [Example 242, 1-[4-(dimethylamino)phenyl]-3-{4-[1-(2-fluoroethyl)-4-(8-oxa-3-azabicyclo[3.2.1]oct-3-yl)-1H-pyrazolo[3,4-d]pyrimidin-6-yl]phenyl}urea] are 7.72, 8.40, 9.18, less than 5.00 and 6.06.
On the same counts, the results for `O=C(Nc1ccc(-c2nc(N3CC4CCC(C3)O4)c3cnn(C4CCN(Cc5cccnc5)CC4)c3n2)cc1)OCCO` [Example 210, 2-hydroxyethyl (4-{4-(8-oxa-3-azabicyclo[3.2.1]oct-3-yl)-1-[1-(pyridin-3-ylmethyl)piperidin-4-yl]-1H-pyrazolo[3,4-d]pyrimidin-6-yl}phenyl)carbamate] are 6.96, 8.40, 9.03, less than 5.00 and 5.76.
